# Test results: patent US20100234381A1, “BIOMARKERS AND METHODS FOR DETERMINING SENSITIVITY TO VASCULAR ENDOTHELIAL GROWTH FACTOR RECEPTOR-2 MODULATORS” (Bristol-Myers Squibb Company, priority 2007, published 2010)
# Entries after “also recorded” stand apart in the source; their conditions may differ.
# Key:
# [1] = system: FGF2-stimulated cancer cell lines; experiment: FGF2-stimulated tumor cell proliferation, panel of cancer cell lines; type: cell-based; conditions: for Brivanib-resistant (>3 μM) cell lines, number / Brivanib-sensitive (≦3 μM) cell lines, number: following FGF2 stimulation
# Description: […], GEO, L2987, 786-0, A549, A498, Du145, PANC-1, ACHN, HT1197, CALU6, SKOV3, 769-[…], HCT166 and UMUC3. […] Gene expression profiling was performed on RNA samples from tumor cell lines using AFFYMETRIX® GeneChip System.
# [2] = system: VEGF-stimulated cancer cell lines; experiment: VEGF-stimulated tumor cell proliferation, panel of cancer cell lines; type: cell-based; conditions: in vitro
# [3] = system: FGF2 growth factor gene expression; experiment: FGF2 gene expression, AFFYMETRIX human arrays
# [4] = system: advanced or metastatic solid tumors; experiment: Phase 1 clinical study CA 182-002: tumor response and PFS by FGF2 status; type: in vivo, human; conditions: for patients with progressive disease / patients with a partial response or stable disease: after 56 days of treatment; for patients with a partial response or stable disease: WHO criteria; for median increase in tumor size from baseline: after two cycles of treatment (approximately 56 days)
# Excerpt: All patients gave informed consent for the clinical trial and for this study, which was approved by the appropriate institutional review boards. Inclusion criteria include ECOG 0-1 (S. Javerzat et al., Trends Mol. Med., 8:483 (2002)), adequate bone marrow and hepatic function, and having tumor tissue block or 20 to 30 unstained slides of the initial biopsy available. Exclusion criteria included prior exposure to vascular endothelial growth factor (VEGF) inhibitors, presence of cardiovascular disease, thromboembolism, or bleeding in the last 6 months. All patients enrolled in the clinical trial had previously failed primary and secondary chemotherapy courses. […] Patients' response was measured by quantifying tumor size by contrast enhanced tomography (CT).
# Tumor response was assesses using the modified WHO tumor response criteria. Lesions were evaluated by computed tomography (CT). Lesions were bidimensional and had at least one diameter of >2 cm on standard CT and >1 cm on spiral CT. For bidimensional measurements, the second diameter was perpendicular to the longest diameter. The area of lesion was calculated by multiplying the longest diameter by the greatest perpendicular diameter.
# Tumor blocks were sectioned at 4 μm. Slides were de-paraffined and rehydrated in the LEICA® ST5020 Multistainer. Antigen retrieval was carried out by heating slides with Citra Plus Antigen retrieval solution (BioGenex, Cat # HK080-9K) in a BIOGENEX® EZ-Retriever Microwave at 95° C. for 15 minutes. The slides were then cooled at room temp for 5 minutes, and rinsed with distilled water for three times (˜1 minute each). Slides were immunostained in the i6000 Automated Staining System (BioGennex) using the following conditions: blocking with peroxide block (DAKO, Cat# K4007) for 5 minutes, followed by 5% goat serum for 30 mins, primary antibodies rabbit anti-fibroblast growth factor-2 (FGF-2) (Abcam Cat# #16828) 1:25 or rabbit immunoglobulin G (Rabbit IgG, LabVision, Cat# NC-100-P) 5 μg/ml were added and incubated for 1 hour, followed by Peroxidase Anti-Rabbit IgG (H+L) secondary antibody (Vector, Cat# PI-1000) at 1:200 dilution for 45 minutes. Chromogen substrate DAB (DAKO, Cat# K4007) was added and incubated for 5 minutes. Slides were counterstained with hematoxyline (DAKO cat#53309) for 1 minute. The stained slides were dehydrated and coverslipped in the LEICA® ST5020 Multistainer and assessed by a board-certified pathologist, without knowledge of patients' medical status.
# To compare response rates between the FGF-2(+) and FGF-2(−) groups, a Fisher's exact test was used. To test for differences of percent changes from baseline in tumor between FGF-2(+) and FGF-2(−) groups, a non-parametric Wilcoxon rank-sum test was used (since the assumptions on the marginal distributions for the t-statistic were slightly violated for percent change from baseline, and small sample sizes could increase the test's vulnerability to assumption violations). The same method was applied to test for the difference in percent change from baseline of CIV at Day 8 and Day 26 between the two groups. In addition, a Rank-based ANCOVA was used to investigate the effect of the FGF-2 status on the post-baseline tumor volume, adjusted for the baseline tumor volume. All analyses were performed using R (Y. Shing et al., Science., 223:1296 (1984)).
# collagen IV (CIV) = experiment: Plasma collagen IV (CIV) ELISA in patients; type: in vivo, human; conditions: for reduction in median CIV levels: regardless of FGF-2 status
# Description: Plasma collagen IV (CIV) was measured using an enzyme-linked immunosorbent assay (ELISA) kit obtained from Biotrin International, Ltd. (Dublin, Ireland). […] Per the manufacturer's kit insert and instructions, the kit standards, QCs and EDTA plasma patient samples were diluted with conjugate (anti-collagen IV mouse Fab′ conjugated to horseradish peroxidase, containing 30 mg/l Proclin 300 as a preservative). Diluted samples were incubated for 30 minutes in wells coated with a second anti-collagen IV antibody, and then washed 3 times with kit wash buffer (phosphate buffer with Tween 20 and proclin 300 as a preservative. Ready to use TMB substrate was added and incubated for 30 minutes. The reaction was stopped by the addition of 1M H2SO4. The absorbance at 450 nm using 630 nm as a reference was measured using a SPECTRAMAX® plate reader (Molecular Devices, Sunnyvale, Calif.). Softmax Pro 4.8 software was used to generate a 4-parameter logistic (4-PL) curve fit using the CIV kit standards.
# [5] = system: FGF2-stimulated cancer cell lines; experiment: FGF2-stimulated tumor cell proliferation, panel of cancer cell lines; type: cell-based; conditions: following FGF2 stimulation
substance,measurement,setting,value
"[(1R),2S]-2-Aminopropionic acid 2-[4-(4-fluoro-2-methyl-1H-indol-5-yloxy)-5-methylpyrrolo[2,1-f][1,2,4]triazin-6-yloxy]-1-methylethyl ester [brivanib]","Brivanib-resistant (>3 μM) cell lines, number",[1]; Bladder cell lines,2
same,"Brivanib-sensitive (≦3 μM) cell lines, number",[1]; Bladder cell lines,1
same,"Brivanib-sensitive (≦3 μM) cell lines, number",[1]; Colon cell lines,0
same,"Brivanib-sensitive (≦3 μM) cell lines, number",[1]; NSCLC cell lines,2
same,"Brivanib-resistant (>3 μM) cell lines, number",[1]; Prostate cell lines,1
same,"Brivanib-resistant (>3 μM) cell lines, number",[1]; Total of cell lines,10
same,inhibition of FGF2-induced tumor cell proliferation,"[1]; panel of cancer cell lines, in vitro",inhibited FGF2-induced tumor cell proliferation in 16 cancer cell lines; also recorded: inhibits FGF2-induced tumor cell line growth with much lower IC50 values than sunitinib
same,effect on tumor cell proliferation in the presence of VEGF,[2],no affect on tumor cell proliferation
same,modulation of FGF2 growth factor gene expression levels,[3],modulated FGF2 growth factor gene expression levels
same,"tumor shrinkage from baseline, FGF2 staining vs negative staining tumors","[4]; Example 1 analysis of CA 182-002, not statistically significant",tend to have more shrinkage than the negative staining tumors
same,"survival, FGF2 positive vs negative tumors (Kaplan-Meier)","[4]; Example 1 analysis of CA 182-002, p value 0.475",tended to have a survival advantage
same,Mean change in tumor size (%) (~8 wks) High (≧600 mg) (n = 26),[4]; FGF2+ patients (n = 24),0.9%
same,Mean change in tumor size (%) (~8 wks) Low (<600 mg) (n = 17),[4]; FGF2+ patients (n = 24),28%
same,Median PFS (days) High (≧600 mg) (n = 26),[4]; FGF2+ patients (n = 24),107 days
same,Median PFS (days) Low (<600 mg) (n = 17),[4]; FGF2+ patients (n = 24),71 days
same,"PD, number of patients",[4]; FGF2+ patients (n = 24),9
same,"PR, number of patients",[4]; FGF2+ patients (n = 24),2
same,Mean change in tumor size (%) (~8 wks) High (≧600 mg) (n = 26),[4]; FGF2− patients (n = 19),24%
same,Mean change in tumor size (%) (~8 wks) Low (<600 mg) (n = 17),[4]; FGF2− patients (n = 19),71%
same,Median PFS (days) High (≧600 mg) (n = 26),[4]; FGF2− patients (n = 19),56 days
same,Median PFS (days) Low (<600 mg) (n = 17),[4]; FGF2− patients (n = 19),54 days
same,"PD, number of patients",[4]; FGF2− patients (n = 19),14
same,"PR, number of patients",[4]; FGF2− patients (n = 19),0
same,"reduction of tumor growth, FGF-2(+) compared with FGF-2(−) patients",[4]; patients with FGF-2(+) tumors,three-fold
same,patients with progressive disease,[4]; patients with FGF-2(+) tumors,9 out of 24
same,patients with a partial response or stable disease,[4]; patients with FGF-2(+) tumors,62.5%
same,median increase in tumor size from baseline,[4]; patients with FGF-2(+) tumors,1%
same,patients with progressive disease,[4]; patients with FGF-2(−) tumors,14 out of 19
same,median increase in tumor size from baseline,[4]; patients with FGF-2(−) tumors,36%
same,patients with a partial response or stable disease,[4]; patients with FGF-2− tumors,26.3%
same,reduction in median CIV levels,"collagen IV (CIV); 320 mg, after 8 days",2.6%
same,reduction in median CIV levels,"collagen IV (CIV); 320 mg, after 26 days",2.3%
same,reduction in median CIV levels,"collagen IV (CIV); 800 mg, after 8 days",24%
same,reduction in median CIV levels,"collagen IV (CIV); 800 mg, after 26 days",31%
same,COL IV change from baseline (%) (Day 26) (n = 42),collagen IV (CIV); FGF2+ patients (n = 24),−30%
same,COL IV change from baseline (%) (Day 26) (n = 42),collagen IV (CIV); FGF2− patients (n = 19),−16%
same,median decrease of CIV levels from baseline,"collagen IV (CIV); patients with FGF2(−) tumors, after 8 days",4.9%
same,median decrease of CIV levels from baseline,"collagen IV (CIV); patients with FGF-2(+) tumors, after 8 days",16.1%
same,median reduction from baseline in CIV levels,"collagen IV (CIV); patients with FGF-2(+) tumors, after 26 days",30.7%
same,median reduction from baseline in CIV levels,"collagen IV (CIV); patients with FGF-2(−) tumors, after 26 days",4.3%
same,"Brivanib-resistant (>3 μM) cell lines, number",[5]; Colon cell lines,3
same,"Brivanib-resistant (>3 μM) cell lines, number",[5]; NSCLC cell lines,1
same,"Brivanib-resistant (>3 μM) cell lines, number",[5]; Ovarian cell lines,1
same,"Brivanib-sensitive (≦3 μM) cell lines, number",[5]; Ovarian cell lines,1
same,"Brivanib-resistant (>3 μM) cell lines, number",[5]; Pancreatic cell lines,1
same,"Brivanib-sensitive (≦3 μM) cell lines, number",[5]; Pancreatic cell lines,1
same,"Brivanib-sensitive (≦3 μM) cell lines, number",[5]; Prostate cell lines,1
same,"Brivanib-resistant (>3 μM) cell lines, number",[5]; Renal cell lines,1
same,"Brivanib-sensitive (≦3 μM) cell lines, number",[5]; Renal cell lines,3
same,"Brivanib-sensitive (≦3 μM) cell lines, number",[5]; Total of cell lines,9
